The values that follow are results of earlier work, collected in US20080167477A1, “NOVEL POLYMORPHIC FORMS OF […] AND PROCESS FOR PREPARING THE SAME” (MATRIX LABORATORIES LIMITED, priority 2007, published 2008).

For the data set the following is noted: compared to the free base of carvedilol; disclosed in WO 2004/002419.

As to `COc1ccccc1OCCNCC(O)COc1cccc2[nH]c3ccccc3c12.O=P(O)(O)O` (stereo not shown) [carvedilol dihydrogen phosphate], the solubility result is on record as “higher solubility when compared to the free base of carvedilol”.
